This note sets out measurements from ChEMBL document CHEMBL1149400, “Tethering identifies fragment that yields potent inhibitors of human caspase-1” (Bioorg Med Chem Lett, 2006).

Usually Ki stands for a measure of affinity in units of concentration, obtained from inhibition or displacement. Read a high Ki as weaker binding. The term EC50 denotes the midpoint of the concentration-response curve. Low values mean greater potency, high ones weaker potency.

Molecules are shown by their SMILES. Residues, ends and D or L forms follow the SMILES beside them. *: point of attachment. Cbz = O=C(OCc1ccccc1)*

Assay [1] has as its target T1, Caspase-1 (Homo sapiens, UniProt P29466).
T1 sequence (P29466 whole entry): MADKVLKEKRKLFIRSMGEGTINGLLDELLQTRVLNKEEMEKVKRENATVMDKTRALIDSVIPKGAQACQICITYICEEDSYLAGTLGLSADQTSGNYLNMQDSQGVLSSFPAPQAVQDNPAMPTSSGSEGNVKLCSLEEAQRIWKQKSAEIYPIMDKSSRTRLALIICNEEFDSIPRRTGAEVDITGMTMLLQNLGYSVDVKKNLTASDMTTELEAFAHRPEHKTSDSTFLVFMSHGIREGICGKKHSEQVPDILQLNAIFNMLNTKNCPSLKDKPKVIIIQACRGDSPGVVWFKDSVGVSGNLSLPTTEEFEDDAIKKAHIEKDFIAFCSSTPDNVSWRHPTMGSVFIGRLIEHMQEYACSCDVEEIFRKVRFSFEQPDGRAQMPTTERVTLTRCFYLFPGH
In words: Inhibitory activity against human Caspase 1.

The subject of assay [2] is PBMC. Put plainly: Inhibition of IL1-beta production in PBMC. It counts as functional, cell-based. The following applies: Homo sapiens.

On to `CC(C)[C@H](NC(=O)[C@H](Cc1ccc(O)cc1)NC(=O)OCc1ccccc1)C(=O)N[C@@H](C)C(=O)N[C@H](C=O)CC(=O)O`, for which the Ki in assay [1] was 180 nM. In assay [2], this molecule displayed an EC50 of 3900 nM. `O=C[C@H](CC(=O)O)NC(=O)c1cc(NC(=O)c2ccc(Nc3cnc4ccccc4n3)cc2)cs1` yielded a Ki in assay [1] of 260 nM. Molecule `O=C[C@H](CC(=O)O)NC(=O)CCCCCNC(=O)c1ccc(Oc2cnc3ccccc3n2)cc1` came in with a Ki in assay [1] of 2400 nM. In assay [2], this molecule gave an EC50 of 27000 nM. Molecule `O=C[C@H](CC(=O)O)NC(=O)C(CCCCNC(=O)c1ccc(Nc2cncc(Cl)n2)cc1)c1cccs1` (some centres not stated) displayed a Ki in assay [1] of 54 nM. On to `O=C[C@H](CC(=O)O)NC(=O)CCCCCC(=O)Nc1ccc(Nc2cnc3ccccc3n2)cc1`, for which the Ki in assay [1] amounted to 2100 nM. Consider `O=C[C@H](CC(=O)O)NC(=O)CCCCNC(=O)c1ccc(Nc2cnc3ccccc3n2)cc1`, for which the inhibition constant (Ki) in assay [1] came out at 2800 nM. In turn, `O=C[C@H](CC(=O)O)NC(=O)c1ccc(CNC(=O)c2ccc(Nc3cnc4ccccc4n3)cc2)cc1` registered a Ki in assay [1] of 100 nM. Molecule `Cc1cc(C(=O)NCCCCC(C(=O)N[C@H](C=O)CC(=O)O)c2cccs2)ccc1Nc1cnc2ccccc2n1` (some centres not stated) registered a Ki in assay [1] of 4 nM. In assay [2], this molecule returned an EC50 of 7700 nM. `O=C[C@H](CC(=O)O)NC(=O)CCCNC(=O)c1ccc(Nc2cnc3ccccc3n2)cc1`: the Ki in assay [1] came to 5200 nM. In turn, `O=C[C@H](CC(=O)O)NC(=O)C(CCCCNC(=O)c1ccc(Oc2cnc3ccccc3n2)cc1)c1cccs1` (some centres not stated) gave a 50% effective concentration (EC50) in assay [2] of 12400 nM.

Take `O=C[C@H](CC(=O)O)NC(=O)C(CCCCNC(=O)c1ccc(Nc2cnc3ccccc3n2)cc1)c1cccs1` (some centres not stated): in assay [1], the Ki was found to be 7 nM. The molecule also came in with an EC50 in assay [2] of 20500 nM. In turn, `O=C[C@H](CC(=O)O)NC(=O)C(CCCCNC(=O)c1ccc(Nc2cnc3ccccc3n2)cc1)c1ccccc1F` (some centres not stated) returned a Ki in assay [1] of 8 nM. Consider `CC(C)[C@H](NC(=O)c1ccc(Nc2cnc3ccccc3n2)cc1)C(=O)N[C@@H](C)C(=O)N[C@H](C=O)CC(=O)O`, for which the Ki in assay [1] is 4 nM. For the molecule `O=C[C@H](CC(=O)O)NC(=O)c1ccc(CNC(=O)c2ccc(Nc3cnc4ccccc4n3)cc2)s1`, the affinity in assay [1] corresponds to a Ki of 35 nM.

As to `O=C[C@H](CC(=O)O)NC(=O)c1ccc(CNC(=O)c2ccc(Nc3cnc4ccccc4n3)cc2)nc1`, in assay [1], the affinity, expressed as Ki, was 5 nM. In assay [1], `O=C[C@H](CC(=O)O)NC(=O)Cc1ccc(CNC(=O)c2ccc(Nc3cnc4ccccc4n3)cc2)s1` returned a Ki of 120 nM. As for `O=C[C@H](CC(=O)O)NC(=O)c1cnc(CNC(=O)c2ccc(Nc3cnc4ccccc4n3)cc2)cn1`, in assay [1], the Ki amounted to 1000 nM. `Cc1cc(C(=O)NCCCCCC(=O)N[C@H](C=O)CC(=O)O)ccc1Nc1cnc2ccccc2n1` yielded an inhibition constant (Ki) in assay [1] of 320 nM. For the same molecule, in assay [2], the 50% effective concentration (EC50) was 7700 nM. In assay [1], `CCC(CCCCNC(=O)c1ccc(Nc2cnc3ccccc3n2)cc1)C(=O)N[C@H](C=O)CC(=O)O` (some centres not stated) had a Ki of 16 nM.

Consider `O=C[C@H](CC(=O)O)NC(=O)CCCCCCNC(=O)c1ccc(Nc2cnc3ccccc3n2)cc1`, for which affinity in assay [1] was put at a Ki of 2600 nM. `O=C[C@H](CC(=O)O)NC(=O)[C@H]1CC[C@H](CNC(=O)c2ccc(Nc3cnc4ccccc4n3)cc2)CC1` yielded a Ki in assay [1] of 1950 nM.

As to `O=C[C@H](CC(=O)O)NC(=O)c1csc(CNC(=O)c2ccc(Nc3cnc4ccccc4n3)cc2)c1`, the affinity in assay [1], expressed as Ki, was 120 nM.

With `Cc1ccc2nc(Nc3ccc(C(=O)NCCCCC(C(=O)N[C@H](C=O)CC(=O)O)c4cccs4)cc3)cnc2c1` (some centres not stated), the inhibitory constant (Ki) in assay [1] came out at 5 nM.

`O=C[C@H](CC(=O)O)NC(=O)CCCCCNC(=O)c1ccc(Nc2cnc3ccccc3n2)cc1`: affinity in assay [1] was put at a Ki of 190 nM. The EC50 in assay [2] was determined as 4200 nM.

In assay [1], `O=C[C@H](CC(=O)O)NC(=O)c1ccc(CNC(=O)c2ccc(Nc3cnc4ccccc4n3)cc2)o1` gave a Ki of 2100 nM. Consider `O=C[C@H](CC(=O)O)NC(=O)CCCCCNC(=O)c1ccc(Nc2cnccn2)cc1`, for which, in assay [1], the affinity, expressed as Ki, was 37000 nM. The EC50 in assay [2] was > 200000 nM. As for `O=C[C@H](CC(=O)O)NC(=O)C(CCCCNC(=O)c1ccc(Nc2cnccn2)cc1)c1cccs1` (some centres not stated), affinity in assay [1] was put at a Ki of 100 nM. In assay [2], this molecule registered an EC50 of 20000 nM.

As for `O=C[C@H](CC(=O)O)NC(=O)C(CCCCNC(=O)c1ccc(Nc2cnc3ccccc3n2)cc1)c1ccccc1` (some centres not stated), the affinity in assay [1], expressed as Ki, was 5 nM. As to `CC(C)[C@H](NC(=O)OCc1ccccc1)C(=O)N[C@@H](C)C(=O)N[C@H](C=O)CC(=O)O` (Cbz-Val-Ala-Asp-aldehyde), affinity in assay [1] was put at a Ki of 8 nM.
